# pEC50, pIC50: −log10 of the molar value. The source made the active and inactive calls.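 Rule for the calls: active = compounds giving half or more protection of infected cells from virus-caused growth loss, again on retest; inactive = the rest.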
# Tested on: CEM cells HIV-1 protection, formazan growth assay
# Assay: NCI AIDS Antiviral Assay
# Details: for pIC50: measured here: growth of uninfected CEM cells
# In short: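 Steps: treat uninfected and HIV-1-infected human CEM cells at five drug levels; quantify growth by soluble formazan; retest any compound reaching 50% protection; classify actives from the retest.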
Structure (SMILES),pEC50,pIC50,outcome
CCOC(=O)C1=C(c2ccccc2)N(C(C)=O)Cc2ccccc21,< 4.30,4.55,–
S=C(N/N=C/c1ccccn1)Nc1ccc(Cl)cc1,< 5.70,7.05,–
COc1cc(/C=C/C(=O)OCCc2ccccc2)ccc1O,< 5.08,5.29,–
Brc1cccc(C2SCc3nc4ccccc4n32)c1 (configuration not stated),–,–,inactive
CCOc1ccc(N2C(=O)/C(=C/c3ccc(N(CCC#N)CCC#N)cc3)N=C2c2cc([N+](=O)[O-])ccc2Cl)cc1,< 4.48,4.67,–
CCN1C[C@]2(C)CC[C@H](O)C34C1C(C[C@@H]32)[C@@]1(O)CC[C@H]2C[C@@H]4[C@@H]1[C@H]2O,–,–,inactive
CN(C)CCCOC(=O)C(c1ccccc1)C1(O)CCSCC1 (configuration not stated),< 3.70,< 3.70,–
C[CH2][Sn]([CH2]C)([O]C(=O)c1ccccc1F)[O][Sn]([CH2]C)([CH2]C)[O]C(=O)c1ccccc1F,< 4.40,4.60,–
COc1cc2c(c(OC)c1OC)-c1cc3c(cc1C(=O)CC(C(=O)O)(C(=O)O)C2)OCO3,< 3.25,< 3.25,–
CC(C)(CNC(=O)/C(Cl)=C(/Cl)C(=O)O)CNC(=O)/C(Cl)=C(/Cl)C(=O)O,< 3.70,4.77,–
Nc1nc(C(=O)O)c(N)c(=O)[nH]1,< 3.70,< 3.70,–
CC1=NN(C(=O)CC(=O)Nc2ccc(C)cc2)C(=O)C1N=Nc1ccc(C(=O)O)cc1 (configuration not stated),< 3.70,4.40,–
OCC(O)CSSCC(O)C(O)CSSCC(O)CO (configuration not stated),–,–,inactive
CN(C)CCN1C(=O)N(CCN(C)C)c2c3cc(O)ccc3nc3c([N+](=O)[O-])ccc1c23,< 3.70,5.63,–
OCCSCCCSCCO,< 4.02,4.14,–
Cn1c2ccccc2c2nn3cnnc3nc21,< 4.49,< 4.49,–
CCN(CC)CCOC(=O)/C=C/c1ccccc1,–,–,inactive
COc1ccc(C(=O)/C=C/c2ccc(OCC(=O)O)cc2)cc1,< 3.70,4.16,–
O=C1CN2CC(c3ccccc3)OC2c2ccccc2N1 (configuration not stated),< 3.65,< 3.65,–
O=C1C2CCC(C2)C12CC1(c3ccccc3)C(=O)c3ccccc3N1O2 (configuration not stated),< 4.54,4.56,–
O=C1OC(OC/C(Br)=C(\Br)COC2OC(=O)C(Cl)=C2Cl)C(Cl)=C1Cl (configuration not stated),< 3.70,5.51,–
Cc1ccc(C)c(N2C(=O)C(=O)C(c3nc4ccccc4o3)C(=O)C2=O)c1,–,–,inactive
C[N+]12CCC34c5ccccc5NC3C3C(CC(=O)[O-])OCC=C(C1)C3CC42 (configuration not stated),–,–,inactive
Nc1ccccc1C(=O)CCc1ccccc1C(=O)O,–,–,inactive

Structure (SMILES),pEC50,pIC50,outcome
CCOC(=O)N(CCCCCCNC(c1ccccc1)S(=O)(=O)O)c1ccccc1 (configuration not stated),< 3.70,5.74,–
COc1cc(N(C)C)c(OC)cc1C=C1C=CC=C1,< 3.01,6.39,–
Nc1cc([As](=O)(O)O)ccn1,< 3.70,< 3.70,–
CCCn1ccc(=O)c(O)c1C,< 3.70,4.45,–
O=C(O)c1onc2ccccc12,< 2.82,3.00,–
CNS(=O)(=O)c1ccccc1C(C)(O)c1ccccc1 (configuration not stated),< 3.70,< 3.70,–
CC1(C)OC2C3CC(C2O1)C1C3C2(Cl)CC1(Cl)C(Cl)=C2Cl (configuration not stated),–,–,inactive
C1=C(c2ccccc2)SC(N2CCCCC2)S1 (configuration not stated),–,–,inactive
Cc1c(C2(c3cc(C(C)C)c(O)c(Br)c3C)OS(=O)(=O)c3ccccc32)cc(C(C)C)c(O)c1Br,< 3.54,4.01,–
OCC1(CO)CCCC(CO)(CO)C1O,< 3.70,< 3.70,–
CCOC(=O)c1cnc2c(ccc3[nH]n(C)nc32)c1=O,< 3.60,< 3.60,–
COC(=O)c1cc(C(=O)OC)c(C/C(=N/Nc2ccc([N+](=O)[O-])cc2[N+](=O)[O-])C(=O)Nc2cccc(C(F)(F)F)c2)nc1C/C(=N/Nc1ccc([N+](=O)[O-])cc1[N+](=O)[O-])C(=O)Nc1cccc(C(F)(F)F)c1,< 3.70,4.15,–
c1ccc(P2c3ccccc3Nc3ccccc32)cc1,< 3.70,4.21,–
CN(C)CCCNc1ccc2c(=O)n(CCN(C)C)c(=O)n3c4ccccc4c(=O)c1c23,< 6.70,7.11,–
NC(CSS(=O)(=O)O)=NCCCCN=C(N)CSS(=O)(=O)O,< 3.70,< 3.70,–
O=c1c(-c2ccccc2)c2oc(c1-c1ccccc1)CS(=O)(=O)CCC2,< 4.01,4.73,–
N#Cc1c(Br)n(C2OC(CO)C(O)C2O)c2ncn3ccnc3c12 (configuration not stated),< 3.70,< 3.70,–
O=C(O)CN1C(=O)C(=O)c2cc([N+](=O)[O-])ccc21,< 3.70,< 3.70,–
C=C(C)CC1(O[Si](C)(C)C)C(=O)C(OCC)=C1OCC (configuration not stated),< 3.70,< 3.70,–
CCC/C(Cl)=N\OC(=O)Nc1ccc(F)c([N+](=O)[O-])c1,< 3.70,5.04,–
CSCCC(NOC(=O)Cc1ccccc1)P(=O)(O)c1ccccc1 (configuration not stated),3.71,3.62,–
C=C1CC[C@@](C)(c2ccc(C)cc2)C1C (some centres not stated),–,–,inactive
O=C1CCCc2ccc3c(c21)CC1(Cc2ccccc2C1)C3,< 3.70,4.60,–
CN(C)c1ccc(C(=CC=C2C(=O)c3ccccc3C2=O)c2ccc(N(C)C)cc2)cc1,< 4.95,< 4.95,–

Structure (SMILES),pEC50,pIC50,outcome
COc1c(C)c(C/C=C(\C)CCCCO)c(OC)c2ccccc12,< 3.70,4.64,–
O=S1(=O)C2CCCC1C(Cl)CC2 (configuration not stated),< 4.32,< 4.32,–
C=Cc1cc[n+](Cc2ccc(C[n+]3ccc(C=C)cc3)cc2)cc1,< 3.78,4.07,–
O=c1c2n[nH]nc2nc2n1CC(c1ccccc1)S2 (configuration not stated),–,–,inactive
Cc1ccc(-c2n[nH]c(=O)n2N)cc1,< 3.70,< 3.70,–
Cc1ccccc1SSCCN,–,–,inactive
CC=C(c1cc(Cl)c(OC)c(C(=O)OC)c1)c1cc(Cl)c(OC)c(C(=O)OC)c1,< 5.70,7.20,–
COC1Sc2ccccc2C(=O)N2CCCC12 (configuration not stated),< 3.70,< 3.70,–
CCCCCC[N+](C)(C)Cc1ccc(C[N+](C)(C)CCCCCC)cc1,–,–,inactive
CN1CCOC1(C)c1ccccc1 (configuration not stated),< 3.70,< 3.70,–
Cc1cc(N(C)C)ccc1N=Nc1ccc2ncccc2c1,–,–,inactive
COc1ccc(Cc2nc3ccccc3s2)cc1OC,< 3.90,4.86,–
Cc1sc2ncnc(N)c2c1C,< 3.56,< 3.56,–
CCOc1ccc2nc(NC(=O)C(=O)C(C#N)CC(C)(C)C=O)sc2c1 (configuration not stated),< 3.32,3.58,–
CC(C)(C)[Si](C)(C)OCC#C[C@@]1(O)CCCCC1CC(Sc1ccccc1)Sc1ccccc1 (some centres not stated),< 3.70,4.90,–
O=C1C=CC(=O)c2c1ccc1c3ccccc3n(Cc3ccc([N+](=O)[O-])cc3)c21,< 3.70,5.55,–
COC1(c2ccccc2)OC(=O)c2ccccc21 (configuration not stated),< 3.70,4.08,–
Cc1ccc(Nc2nc3[nH]ccc3c(=O)[nH]2)cc1,< 3.70,< 3.70,–
COC(=O)C(Nc1ccc(OC)cc1)c1ccccc1 (configuration not stated),< 3.70,3.83,–
N#Cc1c(=O)c2cccnc2n2c1[nH]c1ccccc12,< 3.70,< 3.70,–
COc1ccc(C2OC(c3ccncc3)=NN2C)cc1F (configuration not stated),< 3.70,< 4.00,–
O=c1[nH]c(Nc2cccc(CC(F)(F)F)c2)nc2nc[nH]c12,< 3.70,3.96,–
Cc1ncc2c[n+]([O-])ccn12,< 2.78,< 2.78,–
CCOC(=O)NP(=O)(NC(=O)OCC)NC(=O)OCC,–,–,inactive

Structure (SMILES),pEC50,pIC50,outcome
N#CCCSC1SC(=C2SC3=C(SCCS3)S2)SC1SCCC#N (configuration not stated),< 3.70,< 3.70,–
O=C(NCc1ccc(O)cc1O)c1ccccc1O,< 3.70,3.86,–
COc1ccc2c(c1)[C@@H]1c3cc(OC)c(OC)cc3CCN1CCC2,< 3.70,< 3.70,–
CN(C)S(=O)(=O)N1C(=O)c2ccccc2C1=O,< 3.99,< 3.99,–
O=C1C[C@H](c2ccccc2)O[C@@H](c2ccccc2)C1,< 3.70,< 3.70,–
COc1nn(Cc2ccccn2)c2ccc([N+](=O)[O-])cc12,< 3.70,3.87,–
O=c1ssc(Cl)c1-c1ccccc1,< 3.70,4.99,–
CCOC(=O)c1cc(-c2ccn(C(C)=O)c2)c(-c2cc(C)co2)[nH]1,4.74,< 3.70,–
O=c1[nH]c2cc(Cl)ccc2c(O)c1Cc1c(O)c2ccc(Cl)cc2[nH]c1=O,< 4.00,5.27,–
C=C(CN(C)C)C(=O)c1cc(C)ccc1C,< 3.70,4.95,–
C=CCC(C(=N)C(C#N)(CC=C)C1=CCCCC1)C1=CCCCC1 (configuration not stated),< 4.01,4.09,–
CCN(CC)CCN(C)CC(C)(C)C(=O)/C=C/c1ccccc1,–,–,inactive
CC(=O)Nc1c(S(=O)(=O)c2ccccc2)c(C)c(C)n1Cc1ccccc1,< 3.70,3.88,–
CC(C)c1ccc(C=Nc2ccc(SSc3ccc(N=Cc4ccc(C(C)C)cc4)cc3)cc2)cc1,< 3.70,4.53,–
CCOC(=O)C1C(=O)CN2CCc3c([nH]c4ccccc34)C12 (configuration not stated),< 4.53,< 4.53,–
CCCNC(=O)N(CCN(C)C)S(=O)(=O)c1ccc(Cl)cc1,–,–,inactive
COc1ccc(N2C(Cl)C(=O)C2c2c[nH]c3ccccc23)cc1 (configuration not stated),< 3.82,3.88,–
O=C(NC(OCc1ccccc1)(C(F)(F)F)C(F)(F)F)OCc1ccccc1,< 3.70,4.49,–
O=C(c1ccco1)N(C(=O)N1CCC(c2ccccc2)CC1)c1ccccc1,< 3.70,4.53,–
COc1ccc2c(c1)CCC1C(=O)NN=C21 (configuration not stated),< 3.11,< 3.11,–
CC1(CCC#N)CCC(N)=CC1=O (configuration not stated),< 3.70,< 3.70,–
NC(N)=NCCCS(=O)(=O)Nc1ccc(Nc2c3ccccc3nc3cc([N+](=O)[O-])ccc23)cc1,–,–,inactive
O=C1c2scnc2-c2nccc3c2c1nc1ccccc13,< 5.60,6.34,–
